2 compounds from patent publication US20080221134A1, “8-ALKYNYLXANTHINES AND DERIVATIVES” (priority 2006, published 2008) can be followed below.

Experiment [1] deals with Reserpine induced catalepsy. The experiment can be described thus: Acute Reserpine induced catalepsy test. It counts as in vivo, rat. The following applies: for effect on catalepsy time in acute Reserpine induced catalepsy model: i.p. in DMSO, 0.1-10 mg/kg; for maximum catalepsy values after Reserpine treatment / median catalepsy values after Reserpine treatment: vs only Reserpine-treated animals. On the procedure: (§1) Animals were administered with Reserpine or CGS-21680 according to methods known to the skilled person in the art. These models and procedures are e.g. described by Ferré S. et al., Neurosci. Let., 1991, 130, 162; Ferré S. et al., Neuroscience, 1992, 51, 501; Kafka S. H. et al., Eur. J. Pharmacol., 1996, 295, 147; Rimondini R. et al., Neuropsychopharmacology, 1997, 17, 82 and are herein incorporated by reference. In the acute CGS-21680 induced catalepsy model (CGS model) the test compounds (TC, compounds according to the present invention) and CGS-21680 (i.p. 2 mg/kg) were administered 60 minutes before the start of the catalepsy bar measurement and behavioural testing described below (see also FIG. 1). In the acute Reserpine induced catalepsy model (RES model Resperine (subcutaneously, 3 mg/kg) was injected 24 h prior to the test compound application. Catalepsy bar measurement took place 60 minutes after test compound application (see FIG. 1). Test compounds were administered i.p. in DMSO in following doses (mg/kg): 0.1, 0.3, 1, 3, 10.
(§2) Dimethylsulfoxide (DMSO) was used as vehicle for the test compounds and Reserpine. Reserpine was dissolved in DMSO in a concentration of 3 mg/ml. A 10% (w/v) Cyclodextrin solution was used as vehicle for CGS-21680. CGS 21680 was dissolved in 10% (w/v) Cyclodextrine in a concentration of 2 mg/ml.
Apomorphine was used as a reference compound in the Reserpine induced catalepsy model. Apomorphine injection solution was diluted with purified water to a concentration of 0.3 mg/ml. The solution was administered subcutaneously (s.c.) in a volume of 1 ml/kg (0.3 mg/kg) 20 minutes before the begin of testing after Reserpine pre-treatment (25 hours prior to testing).
The catalepsy bar after Reserpine administration was measured (CAT) as follows: The rat was placed with its forepaws on a log of wood. […] The animal was tested for three trials and the time for each trial was noted. The following parameters were calculated: maximum time to descend (s) and median time to descend (s). […]
(§3) All statistical tests were performed two tailed with a value of p<0.05 considered as significant.
(§4) To assess the effects of CGS-21680 and Reserpine pre-treatment compared to vehicle treated controls statistical comparisons between the test groups were performed using a U test statistic.
To assess the effects of test compounds on CGS-21680 and Reserpine pre-treated animals correlation analyses including animals from test groups and the respective test compound-treated groups were performed.
Additionally, parametric and non-parametric comparisons for the median catalepsy measure were performed to assess the reliability of the method. In case of parametric testing a GLM analyses was performed including animals from a control group (only vehicle treated animals) and the respective test compound-treated groups with dose as a categorical factor. In case of a significant result, a Dunnett's post hoc test was performed between the according test compound groups and a control group as reference group. In case of non-parametric testing a Kruskal-Wallis H-test was performed including animals from a control group and the respective test compound groups. In case of a significant result single U-test comparisons were performed between a control group and the groups treated with different doses of the test compound.

For experiment [2], the system named is CGS-21680 induced catalepsy. The experiment is described as follows: Acute CGS-21680 induced catalepsy test. The format is in vivo, rat. Conditions: for effect on catalepsy time in acute CGS-21680 induced catalepsy model: i.p. in DMSO, 0.1-10 mg/kg. The method, then: as §1, §2
Caffeine was used as a reference compound in the CGS-21680 induced catalepsy model. A caffeine solution was prepared with water for injection purposes to a concentration of 30 mg/ml. The solution was administered intraperitoneally in a volume of 1 ml/kg (30 mg/kg) 30 minutes before the beginning of testing and after CGS-21680 pre-treatment (1 hour prior to testing).
The catalepsy bar after CGS-21680 administration was measured (CAT) as follows: The rat was placed with its forepaws on a log of wood. […] If the animal descended faster than 1 second, the trial was regarded as invalid. If more than 20 trials were rated as invalid, the values of all uncompleted trials were noted as 0. The animal was tested until five trials had been completed and the time for each trial was noted. Only the values of the last three trials were used for the analysis. The following parameters were calculated: maximum time to descend (s) and median time to descend (s).
Behavioural observation (BO) included the measurement of the body tone, inclined plane and grip strength.
The rat is taken in the hand of the observer and the animal's body tone is rated as normal, soft or hard. The rating is performed immediately after taking the animal from its home cage before performance of catalepsy testing. The following parameters were calculated: mean occurrence of hard body tone and mean occurrence of soft body tone.
The rat is horizontally placed to an inclined plane for a maximum time of 30 seconds. Time to reach bottom or top is measured. […] The test is performed after catalepsy testing. Time to leave the inclined plane(s) was measured.
The rat is put on a grip and the observer pulls the animal back on his tail. The strength (fore paws and hind paws) by which it holds on the grid is scored as grasping and pulling, grasping without pulling or no grasping. The test is performed after the inclined plane test. The following parameters were calculated: mean score of fore paw grip strength and mean score of hind paw grip strength.
as §3, §4
To assess the effects of test compounds on CGS-21680 and Reserpine pre-treated animals correlation analyses including animals from test groups and the respective test compound-treated groups were performed. […]

Setting [3] is: vs only CGS-21680-treated animals.

The structures appear in SMILES notation. Entries after “also recorded” stand apart in the source; their conditions may differ.

Take `C#CCn1c(=O)c2c(nc(C#Cc3ccc(OC)c(OC)c3)n2C)n(CC)c1=O` [test compound 1, 3-ethyl-8-(3,4-dimethoxyphenylethynyl)-7-methyl-1-prop-2-ynyl-3,7-dihydropurine-2,6-dione]: in experiment [1], the “effect on catalepsy time in acute Reserpine induced catalepsy model” value was “significantly reduced catalepsy time; also recorded: significant reduction of catalepsy time”, the “maximum catalepsy values after Reserpine treatment” value was “only weakly reduced” and the “median catalepsy values after Reserpine treatment” value was “significantly reduced”. Further, the “effect on catalepsy time in acute CGS-21680 induced catalepsy model” value in experiment [2] is listed as “significantly reduced catalepsy time; also recorded: significant reduction of catalepsy time; also recorded: significant effects”. For the same compound, in experiment [2] (setting [3]), the “grip strength after CGS-21680 treatment” value is reported as “higher amount of grip strength”, the “hard body tone after CGS-21680 treatment” value was “significantly increased”, the “maximum catalepsy values after CGS-21680 treatment” value is given as “decreased” and the “median catalepsy values after CGS-21680 treatment” value is given as “decreased”. The “soft body tone after CGS-21680 treatment” value in experiment [2] (setting [3]) is given as “decreased”.

Turning to `C#CCn1c(=O)c2c(nc(C#Cc3ccc(OC)c(OC)c3)n2C)n(CCCO)c1=O` [test compound 2, 3-(3-hydroxypropyl)-8-(3,4-dimethoxyphenylethynyl)-7-methyl-1-prop-2-ynyl-3,7-dihydropurine-2,6-dione], in experiment [1], the “effect on catalepsy time in acute Reserpine induced catalepsy model” value is on record as “reduced catalepsy time; also recorded: significant reduction of catalepsy time”, the “maximum catalepsy values after Reserpine treatment” value was “significantly decreased” and the “median catalepsy values after Reserpine treatment” value is on record as “significantly decreased”. For the same compound, the “effect on catalepsy time in acute CGS-21680 induced catalepsy model” value in experiment [2] is “reduced catalepsy time; also recorded: reduction of catalepsy time; also recorded: significant effects”. Besides, in experiment [2] (parameters other than body tone), the “any other parameter measured after CGS-21680 treatment” value is on record as “no significant effects”. In experiment [2] (setting [3]), the “hard body tone after CGS-21680 treatment” value is “significantly increased” and the “soft body tone after CGS-21680 treatment” value was “decreased”.
